Tests used:
Format in all cases: cell-based, human
[1] = tested on: A-549; assay: SRB colorimetric assay of cell growth and viability, A-549; settings: A-549 cells, 48 hours exposure, SRB; for GI50: read-out: GI50 (growth inhibition at 50%); for CC50: read-out: LC50 (lethal concentration at 50%)
[2] = tested on: HT-29; assay: SRB colorimetric assay of cell growth and viability, HT-29; settings: HT-29 cells, 48 hours exposure, SRB; for GI50: read-out: GI50 (growth inhibition at 50%); for CC50: read-out: LC50 (lethal concentration at 50%)
[3] = tested on: MB-231; assay: SRB colorimetric assay of cell growth and viability, MB-231; settings: for TGI (total growth inhibition): MB-231 cells, 48 hours exposure; for GI50: read-out: GI50 (growth inhibition at 50%), MB-231 cells, 48 hours exposure; for CC50: read-out: LC50 (lethal concentration at 50%), MB-231 cells, 48 hours exposure
Excerpt: The finality of this assay is to interrupt the growth of a “in vitro” tumor cell culture by means a continued exhibition of the cells to the sample to be testing.
A colorimetric type of assay, using sulforhodamine B (SRB) reaction has been adapted for a quantitative measurement of cell growth and viability [following the technique described by Philip Skehan, et al. (1990), New colorimetric cytotoxicity assay for anticancer drug screening, J. Natl. Cancer Inst., 82:1107-1112].
This form of the assay employs 96 well cell culture microplates of 9 mm diameter (Faircloth, 1988; Mosmann, 1983). Most of the cell lines are obtained from American Type Culture Collection (ATCC) derived from different human cancer types.
Cells are maintained in RPMI 1640 10% FBS, supplemented with 0.1 g/l penicillin and 0.1 g/l streptomycin sulfate and then incubated at 37° C., 5% CO2 and 98% humidity. For the experiments, cells were harvested from subconfluent cultures using trypsin and resuspended in fresh medium before plating.
Cells are seeded in 96 well microtiter plates, at 5×10^3 cells per well in aliquots of 195 μL medium, and they are allowed to attach to the plate surface by growing in drug free medium for 18 hours. Afterward, samples are added in aliquots of 5 μL in a ranging from 10 to 10^−8 μg/mL, dissolved in DMSO:EtOH:PBS (0.5:0.5:99). After 48 hours exposure, the antitumor effect are measured by the SRB methodology: cells are fixed by adding 50 μL of cold 50% (wt/vol) trichloroacetic acid (TCA) and incubating for 60 minutes at 4° C. Plates are washed with deionized water and dried. One hundred μL of SRB solution (0.4% wt/vol in 1% acetic acid) is added to each microtiter well and incubated for 10 minutes at room temperature. Unbound SRB is removed by washing with 1% acetic acid. Plates are air dried and bound stain is solubilized with Tris buffer. Optical densities are read on a automated spectrophotometric plate reader at a single wavelength of 490 nm.
The values for mean+/− SD of data from triplicate wells are calculated. Some parameters for cellular responses can be calculated: GI=growth inhibition, TGI=total growth inhibition (cytostatic effect) and LC=cell killing (cytotoxic effect).

SMILES: C/C=C1\NC(=O)[C@H](Cc2ccccc2)NC(=O)[C@@H](C(C)C)NC(=O)[C@@H]([C@@H](C)CC)NC(=O)[C@H](NC(=O)[C@H](NC(=O)[C@H](CCCN)NC(=O)[C@H]2CCCN2C(=O)[C@H](NC(=O)[C@@H](NC(=O)[C@@H](NC(=O)[C@H](N=C(N(C)C)N(C)C)C(C)C)[C@@H](C)O)C(C)C)C(C)C)[C@@H](C)CC)[C@@H](C)OC(=O)[C@H](C(C)C)NC1=O [Compound 103, [[C(═N(CH3)2)^14]-KF]
- TGI (total growth inhibition) [1]: 6.83E−06 Molar
- TGI (total growth inhibition) [2]: 6.83E−06 Molar
- TGI (total growth inhibition) [3]: 6.83E−06 Molar

SMILES: C/C=C1\NC(=O)[C@H](Cc2ccccc2)NC(=O)[C@@H](C(C)C)NC(=O)[C@@H]([C@@H](C)CC)NC(=O)[C@H](NC(=O)[C@H](NC(=O)[C@H](CCCN)NC(=O)[C@H]2CCCN2C(=O)[C@H](NC(=O)[C@@H](NC(=O)[C@@H](NC(=O)[C@H](NC(=O)CCCC(C)C)C(C)C)[C@@H](C)O)C(C)C)C(C)C)[C@@H](C)CC)[C@@H](C)OC(=O)[C@@H](C(C)C)NC1=O [Compound 110, [D-Val^1]-KF]
- TGI (total growth inhibition) [1]: 1.13E−06 Molar
- GI50 [1]: 879 nM
- CC50 [1]: 1630 nM
- TGI (total growth inhibition) [2]: 5.15E−07 Molar
- GI50 [2]: 408 nM
- CC50 [2]: 691 nM
- TGI (total growth inhibition) [3]: 3.71E−06 Molar
- GI50 [3]: 3200 nM
- CC50 [3]: 6280 nM

SMILES: C/C=C1\NC(=O)[C@H](Cc2ccccc2)NC(=O)[C@@H](C(C)C)NC(=O)[C@@H]([C@@H](C)CC)NC(=O)[C@H](NC(=O)[C@H](NC(=O)[C@H](CCCN)NC(=O)[C@H]2CCCN2C(=O)[C@H](NC(=O)[C@@H](NC(=O)[C@@H](NC(=O)[C@H](NC(=O)CCCC(C)C)C(C)C)[C@@H](C)O)C(C)C)C(C)C)[C@H](C)CC)[C@@H](C)OC(=O)[C@H](C(C)C)NC1=O [Compound 104, [D-Ile^7]-KF]
- TGI (total growth inhibition) [1]: 1.13E−06 Molar
- GI50 [1]: 942 nM
- CC50 [1]: 1510 nM
- TGI (total growth inhibition) [2]: 3.39E−07 Molar
- GI50 [2]: 314 nM
- CC50 [2]: 371 nM
- TGI (total growth inhibition) [3]: 5.34E−06 Molar
- GI50 [3]: 5090 nM
- CC50 [3]: 5590 nM

SMILES: C/C=C1\NC(=O)[C@H](Cc2ccccc2)NC(=O)[C@@H](C(C)C)NC(=O)[C@@H]([C@@H](C)CC)NC(=O)[C@H](NC(=O)[C@H](NC(=O)[C@H](CCCN)NC(=O)[C@H]2CCCN2C(=O)[C@H](NC(=O)[C@@H](NC(=O)[C@@H](NC(=O)[C@H](NC(=O)[C@]23CCC(C)(C)C[C@H]2C2=CC[C@@H]4[C@@]5(C)C[C@@H](O)[C@H](O)C(C)(C)[C@@H]5CC[C@@]4(C)[C@]2(C)CC3)C(C)C)[C@@H](C)O)C(C)C)C(C)C)[C@@H](C)CC)[C@@H](C)OC(=O)[C@H](C(C)C)NC1=O [Compound 101, [AM^14]-KF]
- TGI (total growth inhibition) [1]: 5.49E−06 Molar
- GI50 [1]: 5490 nM
- CC50 [1]: 5490 nM
- TGI (total growth inhibition) [2]: 4.60E−06 Molar
- GI50 [2]: 4450 nM
- CC50 [2]: 4860 nM
- TGI (total growth inhibition) [3]: 5.49E−06 Molar
